The record followed here is paper PMC8634746 (International Journal of Peptide Research and Therapeutics, 2021).

The target in the assay is S1-ACE2 complex (Severe acute respiratory syndrome coronavirus 2, UniProt P0DTC2). The format is binding, human (ACE2); SARS-CoV-2 (S1). Particulars: 5 μM peptide; preincubation 3 to 60 min.

Peptide text beside a SMILES is read from it.

Regarding `CC(C)C[C@H](NC(=O)[C@H](CC(=O)O)NC(=O)[C@H](CCC(=O)O)NC(=O)[C@H](C)NC(=O)[C@H](CCC(=O)O)NC(=O)[C@H](Cc1c[nH]cn1)NC(=O)[C@H](CC(N)=O)NC(=O)[C@H](Cc1ccccc1)NC(=O)[C@H](CCCCN)NC(=O)[C@H](CC(=O)O)NC(=O)[C@H](CC(C)C)NC(=O)[C@H](Cc1ccccc1)NC(=O)[C@@H](NC(=O)[C@H](CCCCN)NC(=O)[C@H](C)NC(=O)[C@@H](N)CCC(N)=O)[C@@H](C)O)C(=O)N[C@@H](Cc1ccccc1)C(=O)N[C@@H](Cc1ccc(O)cc1)C(=O)N[C@@H](CCC(N)=O)C(N)=O` (H-QAKTFLDKFNHEAEDLFYQ-NH2), the “half-life of preincubation-time effect on koff^rel” value was found to be 14 min.
